Experiments:
[1] = Mouse pharmacokinetics after intravenous administration (plasma and brain, LC-MS); format: in vivo; settings: C57 mice, intravenous 5 mg/kg; for concentration at 120 min: brain after cardiac perfusion, read-out: brain drug concentration at 120 min; for half-life / AUC: plasma; for AUC: read-out: area under the curve (AUC) from 1 to 120 min
Protocol: C57 mice were administered intravenously, at a dosage concentration of 5 mg/kg in each group. Retro-orbital blood collection was performed on the mice at 1 min, 30 min, 1 h, and 2 h post-dosing. The collected blood was centrifuged at 3000 rpm for 10 min at 4 °C to obtain plasma. Acetonitrile was added at a 1:3 volume ratio of plasma: acetonitrile to precipitate proteins. After centrifugation, the supernatant was collected and filtered. The concentration of the compound was detected using LC-MS (Agilent 1260-G6125, SIM mode). In addition, 2 h after drug injection, the mice were subjected to cardiac perfusion and then their brains were harvested. Following tissue homogenization and centrifugation, the supernatant was collected. Acetonitrile was added at a 1:3 volume ratio of supernatant: acetonitrile to precipitate proteins. After centrifugation, the supernatant was collected and filtered. The concentration of the compound was detected using LC-MS (Agilent 1260-G6125, SIM mode).
(§1) Experimental groups: a vehicle control group, and a dosing group.

NLRP3 [2] = biological target: T1, NLRP3 (Mus musculus, UniProt Q8R4B8); experiment: Inhibition of canonical NLRP3 activation (LPS+ATP/Nig) in J774A.1 cells, IL-1β release by ELISA, single concentration; format: cell-based; set-up: The mouse macrophage cell line J774A.1 was used, and LPS was used as the first signal; host or cells: J774A.1 mouse monocyte-macrophage cell line; settings: J774.A1, 1 µM compound, LPS + 5 mM ATP or 10 µM Nig, compared with the positive control, read-out: inhibition of IL-1β release
Protocol: J774A.1 cells were plated in a 48-well plate at a density of 1.0×10^6 cells/mL, with 300 µL per well. Subsequently, NLRP3 was activated using LPS+5 mM ATP (adenosine triphosphate) or 10 µM Nig (nigericin). […] ATP was purchased from Sigma, Cat. No.: L2654. Nig was purchased from Shanghai Yuanye Bio-Technology Co., Ltd., Cat. No.: S45490.
Experimental groups: a negative control group, an LPS-alone incubation control group, an LPS+ATP or +Nig positive control group, and an example compound experimental group.
After the plated J774A.1 cells adhering to the plate, the culture medium was replaced. For all the groups except the negative control group, the culture medium was completely replaced with cell culture medium containing 1 µg/mL LPS. The negative control group received cell culture medium. Then, all the groups were incubated overnight. 18 h later, the culture medium was replaced again. The culture medium of the example compound experimental group was completely replaced with cell culture medium containing the compounds; while the negative control group, the LPS-alone incubation control group, and the LPS+ATP/Nig positive control group received cell culture medium. 1 h later, the culture mediums of the LPS+ATP/Nig positive control group and the example compound experimental group were completely replaced with cell culture medium containing 5 mM ATP or 10 µM Nig. 1 h later, the cell supernatants were collected for IL-1β detection.
Therefore, the relative change in the amount of IL-1β release may directly reflect NLRP3 inhibitory effect.

NLRP3 [3] = biological target: T1, NLRP3; experiment: Inhibition of APOE peptide-induced NLRP3 activation in J774A.1 cells, IL-1β release; format: cell-based; set-up: The mouse macrophage cell line J774A.1 was used, and LPS was used as the first signal; host or cells: J774A.1 mouse monocyte-macrophage cell line; settings: J774.A1, 10 µM compound, 30 µg/mL APOE peptide
Protocol: J774A.1 cells were plated in a 48-well plate at a density of 1.0×10^6 cells/mL, with 300 µL per well. Subsequently, NLRP3 was activated by APOE peptide. The cell culture medium comprises: DMEM (brand: Gibco, Cat. No.: C12430500) + 10% fetal bovine serum (brand: Gibco, Cat. No.: 10099-141) + 1% sodium pyruvate (brand: Gibco, Cat. No.: 11360-070) + 1% penicillin-streptomycin solution (brand: Solarbio, Cat. No.: P1400). The J774A.1 mouse monocyte-macrophage cell line was purchased from the Cell Resource Center of the Institute of Basic Medical Sciences of Chinese Academy of Medical Sciences (Resource No. 1101MOU-PUMC000222). APOE2/3 peptide 1-151 was obtained through recombinant protein expression and purification by Biocells (Beijing) Biotech Co., Ltd. The procedures were as follows: the sequence (SEQ ID NO: 1) shown below was inserted into the pET-28A plasmid and transformed into BL-21(DE3) expression strain; the expression of target protein was induced with IPTG at a low temperature; after collecting the bacteria via centrifugation, ultrasonic disruption was performed; and after centrifugation, the supernatant was purified by nickel ion affinity chromatography (AKTA pure), and then the product was concentrated by ultrafiltration and identified by BCA+protein electrophoresis. Sequence: [formula]
Experimental groups: a negative control group, an APOE treatment control group, and an example compound experimental group.
After the plated J774A.1 cells adhering to the plate, the culture medium was replaced. The culture medium of the APOE treatment control group was replaced with cell culture medium containing 30 µg/mL APOE peptide, the culture medium of the example compound experimental group was replaced with culture medium containing 30 µg/mL APOE peptide combined with the compounds, and the negative control group received cell culture medium. Then, all the groups were incubated overnight. 18 h later, the cell supernatants were collected for IL-1β detection.
Activation of NLRP3 by APOE peptide will result in release of mature IL-1β, and the release can be inhibited by NLRP3 inhibitors. Therefore, the relative change in the amount of IL-1β release may directly reflect NLRP3 inhibitory effect.
In this experimental example, effective inhibition refers to a reduction of 70% or more in the release amount, compared with the release amount of the positive control minus the negative control.

[4] = Rat plasma pharmacokinetics after intravenous administration (LC-MS); format: in vivo; settings: SD rats, intravenous 2.5 mg/kg; for AUC: read-out: AUC from 1 to 1440 min
Protocol: SD rats were administered intravenously, at a dosage concentration of 2.5 mg/kg in each group. Blood was collected at the time points of 1 min, 30 min, 1 h, 2 h, 4 h, 6 h, and 24 h. The collected blood was centrifuged at 3000 rpm for 10 min at 4 °C to obtain plasma. Acetonitrile was added at a 1:3 volume ratio of plasma: acetonitrile to precipitate proteins. After centrifugation, the supernatant was collected and filtered. The concentration of the compound was detected using LC-MS (Agilent 1260-G6125, SIM mode).
as §1

T1 sequence (Q8R4B8 whole entry): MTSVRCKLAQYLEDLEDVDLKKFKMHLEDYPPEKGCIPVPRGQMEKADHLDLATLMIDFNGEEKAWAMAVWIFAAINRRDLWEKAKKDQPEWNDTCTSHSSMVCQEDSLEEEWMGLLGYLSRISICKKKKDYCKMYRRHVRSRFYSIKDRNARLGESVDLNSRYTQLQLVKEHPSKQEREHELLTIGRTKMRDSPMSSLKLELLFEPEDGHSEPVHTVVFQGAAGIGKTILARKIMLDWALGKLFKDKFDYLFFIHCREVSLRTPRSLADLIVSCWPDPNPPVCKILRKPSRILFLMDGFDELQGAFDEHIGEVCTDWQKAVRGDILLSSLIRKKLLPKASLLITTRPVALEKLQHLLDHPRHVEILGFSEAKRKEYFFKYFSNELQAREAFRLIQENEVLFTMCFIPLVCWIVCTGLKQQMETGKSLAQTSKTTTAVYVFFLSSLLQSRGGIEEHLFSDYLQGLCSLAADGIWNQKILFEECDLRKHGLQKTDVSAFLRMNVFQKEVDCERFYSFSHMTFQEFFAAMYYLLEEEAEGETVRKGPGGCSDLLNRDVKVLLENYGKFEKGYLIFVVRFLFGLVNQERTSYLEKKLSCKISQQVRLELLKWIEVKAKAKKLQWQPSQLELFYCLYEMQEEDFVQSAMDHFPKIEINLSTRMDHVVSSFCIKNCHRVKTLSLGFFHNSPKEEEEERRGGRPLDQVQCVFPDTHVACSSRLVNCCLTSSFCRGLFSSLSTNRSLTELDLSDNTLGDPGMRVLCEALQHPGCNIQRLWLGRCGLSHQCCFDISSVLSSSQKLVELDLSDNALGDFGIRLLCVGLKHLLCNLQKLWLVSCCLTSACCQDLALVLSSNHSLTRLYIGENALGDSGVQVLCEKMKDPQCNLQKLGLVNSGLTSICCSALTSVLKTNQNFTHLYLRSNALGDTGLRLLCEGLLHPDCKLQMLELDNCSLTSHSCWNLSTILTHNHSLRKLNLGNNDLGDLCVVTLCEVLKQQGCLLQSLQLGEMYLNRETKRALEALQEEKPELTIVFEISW

Structure (SMILES): COc1ccc(S(=O)(=O)NC(=O)Nc2c3c(cc4c2CCC4)CCC3)cc1CN(C)C [Example 3, 3-((dimethylamino)methyl)-N-((1,2,3,5,6,7-hexahydro-s-indacen-4-yl)carbamoyl)-4-methoxybenzenesulfonamide]
- concentration at 120 min [1]: 35500 ng/mL
- half-life [1]: 63 min
- AUC [1]: 257000 ng·h/mL
- inhibition at 1 µM (NLRP3 [2]): > 80%
- inhibition at 10 µM (NLRP3 [3]): ≥ 70%

Structure (SMILES): CN(C)Cc1cc(S(=O)(=O)NC(=O)Nc2c3c(cc4c2CCC4)CCC3)ccc1O [Example 5, 3-((dimethylamino)methyl)-N-((1,2,3,5,6,7-hexahydro-s-indacen-4-yl)carbamoyl)-4-hydroxybenzenesulfonamide]
- concentration at 120 min [1]: 3870 ng/mL
- half-life [1]: 138 min
- AUC [1]: 67400 ng·h/mL
- half-life [4]: 116 min
- AUC [4]: 33900 ng·h/mL
- inhibition at 1 µM (NLRP3 [2]): > 80%
- inhibition at 10 µM (NLRP3 [3]): ≥ 70%

Structure (SMILES): CN(C)Cc1cccc(S(=O)(=O)NC(=O)Nc2c3c(cc4c2CCC4)CCC3)c1N [Example 19, 2-amino-3-((dimethylamino)methyl)-N-((1,2,3,5,6,7-hexahydro-s-indacen-4-yl)carbamoyl)benzenesulfonamide]
- concentration at 120 min [1]: 242 ng/mL
- half-life [1]: 139 min
- AUC [1]: 14700 ng·h/mL
- half-life [4]: 231 min
- AUC [4]: 56500 ng·h/mL
- inhibition at 1 µM (NLRP3 [2]): > 80%
- inhibition at 10 µM (NLRP3 [3]): ≥ 70%
